Assay results as given in PMC3692398 (Biochemical pharmacology, 2013).
Read-outs that look alike come from different tables or passages of the source.

Legend:
human DA D2 receptor = human DA D2 receptor (Homo sapiens, UniProt P14416); type: binding; settings: test drugs up to the maximal concentration tested (10 µM)
hNET [1] = target: T1, hNET (Homo sapiens, UniProt P23975); experiment: biochemical; type: binding; settings: read-out: Inhibition of [125I]RTI-55 binding Ki ± sem, hNET
hDAT [2] = target: T2, hDAT (Homo sapiens, UniProt Q01959); experiment: Inhibition of [3H]DA uptake, intact HEK-hDAT cells; type: cell-based; settings: for ratio of binding Ki to uptake IC50, hDAT: [125I]RTI-55 Ki / [3H]DA uptake IC50; for IC50: read-out: Inhibition of [3H]neurotransmitter uptake IC50 ± sem, hDAT [3H]DA, 20 nM [3H]DA, intact cells
T2 sequence (Q01959 whole entry, the tested form may be a part): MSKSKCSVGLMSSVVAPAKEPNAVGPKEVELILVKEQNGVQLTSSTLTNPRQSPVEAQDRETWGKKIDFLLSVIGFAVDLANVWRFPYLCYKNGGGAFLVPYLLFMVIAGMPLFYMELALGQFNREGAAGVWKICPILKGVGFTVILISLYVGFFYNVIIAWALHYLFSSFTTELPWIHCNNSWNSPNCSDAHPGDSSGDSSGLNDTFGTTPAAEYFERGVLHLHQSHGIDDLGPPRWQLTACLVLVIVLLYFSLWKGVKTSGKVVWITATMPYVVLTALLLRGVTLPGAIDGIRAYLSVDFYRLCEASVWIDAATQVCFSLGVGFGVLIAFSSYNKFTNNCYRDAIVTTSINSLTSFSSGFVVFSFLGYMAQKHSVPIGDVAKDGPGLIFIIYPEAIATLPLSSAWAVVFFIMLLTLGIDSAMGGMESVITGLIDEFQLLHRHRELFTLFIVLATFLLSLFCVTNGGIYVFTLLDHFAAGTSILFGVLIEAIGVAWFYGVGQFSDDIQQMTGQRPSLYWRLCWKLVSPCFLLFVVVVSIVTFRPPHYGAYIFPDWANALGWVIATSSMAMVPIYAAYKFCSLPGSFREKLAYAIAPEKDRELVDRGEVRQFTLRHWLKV

hNET [3] = target: T1, hNET; experiment: Superfusion release of preloaded [3H]NE from HEK-hNET cells; type: cell-based; settings: for EC50: read-out: Drug-induced release of [3H]neurotransmitter EC50 ± sem, hNET [3H]NE, superfusion, AUC; for % maximum release ± sem, hNET [3H]NE: relative to maximal AUC induced by METH (0.3 or 1 µM)
h5-HT1A receptor [4] = target: T3, h5-HT1A receptor (Homo sapiens, UniProt P08908); experiment: [3H]8-OH-DPAT binding, HEK-h5-HT1A; settings: read-out: Inhibition of radioligand binding Ki ± sem, h5-HT1A [3H]8OH-DPAT
T3 sequence (P08908 1-422): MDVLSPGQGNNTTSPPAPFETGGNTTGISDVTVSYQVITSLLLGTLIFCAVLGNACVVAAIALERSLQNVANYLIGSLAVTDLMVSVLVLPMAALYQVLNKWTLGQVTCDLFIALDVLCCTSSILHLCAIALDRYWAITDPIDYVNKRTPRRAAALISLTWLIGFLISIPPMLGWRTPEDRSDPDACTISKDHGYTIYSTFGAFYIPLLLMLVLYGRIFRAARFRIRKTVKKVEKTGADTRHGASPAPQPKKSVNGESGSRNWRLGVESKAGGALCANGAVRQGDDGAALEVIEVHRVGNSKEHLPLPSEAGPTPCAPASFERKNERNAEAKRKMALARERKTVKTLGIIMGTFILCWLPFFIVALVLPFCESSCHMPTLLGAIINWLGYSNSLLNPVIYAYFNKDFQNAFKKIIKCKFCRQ

h5-HT2A receptor [5] = target: T4, h5-HT2A receptor (Homo sapiens, UniProt P28223); experiment: Inhibition of 5-HT-stimulated IP-1 formation; type: cell-based; settings: 100 nM 5-HT; for h5-HT2A Inhibition of 5-HT-stimulated IP-1 formation % maximum inhibition ± sem: normalized to maximal inhibition by ketanserin (10 µM); for IC50: read-out: h5-HT2A Inhibition of 5-HT-stimulated IP-1 formation IC50 ± sem
T4 sequence (P28223 whole entry): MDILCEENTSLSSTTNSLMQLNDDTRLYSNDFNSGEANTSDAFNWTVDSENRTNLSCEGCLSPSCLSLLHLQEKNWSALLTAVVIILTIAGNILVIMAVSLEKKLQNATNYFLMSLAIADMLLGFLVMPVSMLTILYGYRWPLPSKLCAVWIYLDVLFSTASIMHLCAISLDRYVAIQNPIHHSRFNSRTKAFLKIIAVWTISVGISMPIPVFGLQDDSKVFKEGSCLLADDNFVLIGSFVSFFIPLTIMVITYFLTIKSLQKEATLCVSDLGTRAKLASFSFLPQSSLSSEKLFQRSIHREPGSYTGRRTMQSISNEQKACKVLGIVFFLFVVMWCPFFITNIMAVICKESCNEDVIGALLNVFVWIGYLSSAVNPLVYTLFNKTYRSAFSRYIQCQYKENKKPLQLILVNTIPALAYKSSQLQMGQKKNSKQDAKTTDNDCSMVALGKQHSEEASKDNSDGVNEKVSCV

human DA D3 receptor = human DA D3 receptor (Homo sapiens, UniProt P35462); experiment: [3H]YM-09151-2 binding, CHOp-D3 cells; settings: test drugs up to 10 µM; words give concentration range, 'low' = low nanomolar
Chain of human DA D3 receptor (P35462 whole entry): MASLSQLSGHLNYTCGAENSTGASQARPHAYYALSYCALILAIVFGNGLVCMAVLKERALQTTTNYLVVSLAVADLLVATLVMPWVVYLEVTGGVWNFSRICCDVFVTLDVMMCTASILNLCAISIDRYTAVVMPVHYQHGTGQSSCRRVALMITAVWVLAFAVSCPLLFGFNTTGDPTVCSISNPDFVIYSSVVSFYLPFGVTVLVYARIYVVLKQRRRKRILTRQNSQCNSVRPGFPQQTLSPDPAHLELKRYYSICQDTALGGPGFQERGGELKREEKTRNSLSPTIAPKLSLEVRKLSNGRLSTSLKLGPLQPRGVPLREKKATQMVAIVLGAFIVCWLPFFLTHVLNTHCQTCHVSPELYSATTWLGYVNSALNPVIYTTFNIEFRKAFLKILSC

hVMAT2 [6] = target: T5, hVMAT2 (Homo sapiens, UniProt Q05940); experiment: Inhibition of [3H]5-HT uptake, HEK-hVMAT2 membrane preparation; type: biochemical; settings: read-out: Inhibition of [3H]5-HT uptake IC50 ± sem, hVMAT2; 40 nM [3H]5-HT, 2 mM MgATP
T5 sequence (Q05940 whole entry): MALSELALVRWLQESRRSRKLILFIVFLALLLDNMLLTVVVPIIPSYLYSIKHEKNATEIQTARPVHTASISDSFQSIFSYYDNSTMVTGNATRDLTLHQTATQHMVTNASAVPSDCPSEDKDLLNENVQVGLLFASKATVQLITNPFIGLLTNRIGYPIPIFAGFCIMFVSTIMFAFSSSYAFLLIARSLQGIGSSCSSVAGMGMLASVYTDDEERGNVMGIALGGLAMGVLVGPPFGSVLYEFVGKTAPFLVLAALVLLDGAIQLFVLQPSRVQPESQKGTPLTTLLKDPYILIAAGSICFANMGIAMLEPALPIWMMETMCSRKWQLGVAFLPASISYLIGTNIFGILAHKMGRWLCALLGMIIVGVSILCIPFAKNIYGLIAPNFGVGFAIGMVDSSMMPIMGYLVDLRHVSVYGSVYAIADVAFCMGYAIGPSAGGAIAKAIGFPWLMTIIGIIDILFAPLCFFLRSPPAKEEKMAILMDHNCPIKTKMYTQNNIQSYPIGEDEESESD

human D4.4 receptor = target: T6, human D4.4 receptor (Homo sapiens, UniProt P21917); type: binding; settings: test drugs up to 10 µM; words give concentration range, 'low' = low nanomolar
T6 sequence (P21917 1-419): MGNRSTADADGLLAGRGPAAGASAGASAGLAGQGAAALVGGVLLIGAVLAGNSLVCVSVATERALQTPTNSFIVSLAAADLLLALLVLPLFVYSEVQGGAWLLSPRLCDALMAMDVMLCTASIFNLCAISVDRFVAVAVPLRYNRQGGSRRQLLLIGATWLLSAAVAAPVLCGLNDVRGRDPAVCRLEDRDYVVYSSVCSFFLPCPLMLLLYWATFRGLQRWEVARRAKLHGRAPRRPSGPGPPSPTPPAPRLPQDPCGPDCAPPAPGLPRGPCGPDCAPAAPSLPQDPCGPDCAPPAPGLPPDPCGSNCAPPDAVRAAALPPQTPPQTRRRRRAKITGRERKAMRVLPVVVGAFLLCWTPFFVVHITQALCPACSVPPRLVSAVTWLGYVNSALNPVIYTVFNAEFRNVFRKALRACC

hSERT [7] = target: T7, hSERT (Homo sapiens, UniProt P31645); experiment: Superfusion release of preloaded [3H]5-HT from HEK-hSERT cells; type: cell-based; settings: for EC50: read-out: Drug-induced release of [3H]neurotransmitter EC50 ± sem, hSERT [3H]5-HT, superfusion, AUC
T7 sequence (P31645 whole entry, the tested form may be a part): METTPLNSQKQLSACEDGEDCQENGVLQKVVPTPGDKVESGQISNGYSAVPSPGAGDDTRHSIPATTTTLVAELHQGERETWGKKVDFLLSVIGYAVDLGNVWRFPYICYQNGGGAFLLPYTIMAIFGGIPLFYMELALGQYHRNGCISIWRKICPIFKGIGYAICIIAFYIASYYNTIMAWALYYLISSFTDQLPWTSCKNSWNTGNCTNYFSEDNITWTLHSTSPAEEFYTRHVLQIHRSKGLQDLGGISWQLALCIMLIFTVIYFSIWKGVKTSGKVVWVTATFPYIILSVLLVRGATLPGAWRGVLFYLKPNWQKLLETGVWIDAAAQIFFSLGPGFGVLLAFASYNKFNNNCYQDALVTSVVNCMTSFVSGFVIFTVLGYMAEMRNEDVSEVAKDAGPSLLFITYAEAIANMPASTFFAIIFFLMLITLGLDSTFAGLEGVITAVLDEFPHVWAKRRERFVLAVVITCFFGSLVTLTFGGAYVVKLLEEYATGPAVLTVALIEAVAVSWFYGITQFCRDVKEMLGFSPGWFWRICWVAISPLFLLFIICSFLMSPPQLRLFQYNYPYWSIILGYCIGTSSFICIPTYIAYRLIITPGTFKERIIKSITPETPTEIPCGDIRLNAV

hDAT [8] = target: T2, hDAT; experiment: Superfusion release of preloaded [3H]DA from HEK-hDAT cells; type: cell-based; settings: for EC50: read-out: Drug-induced release of [3H]neurotransmitter EC50 ± sem, hDAT [3H]DA, superfusion, AUC
human DA D1 receptor = human DA D1 receptor (Homo sapiens, UniProt P21728); experiment: [3H]SCH23390 binding, LhD1 cells; settings: test drugs up to the maximal concentration tested (10 µM)
Chain of human DA D1 receptor (P21728 whole entry, the tested form may be a part): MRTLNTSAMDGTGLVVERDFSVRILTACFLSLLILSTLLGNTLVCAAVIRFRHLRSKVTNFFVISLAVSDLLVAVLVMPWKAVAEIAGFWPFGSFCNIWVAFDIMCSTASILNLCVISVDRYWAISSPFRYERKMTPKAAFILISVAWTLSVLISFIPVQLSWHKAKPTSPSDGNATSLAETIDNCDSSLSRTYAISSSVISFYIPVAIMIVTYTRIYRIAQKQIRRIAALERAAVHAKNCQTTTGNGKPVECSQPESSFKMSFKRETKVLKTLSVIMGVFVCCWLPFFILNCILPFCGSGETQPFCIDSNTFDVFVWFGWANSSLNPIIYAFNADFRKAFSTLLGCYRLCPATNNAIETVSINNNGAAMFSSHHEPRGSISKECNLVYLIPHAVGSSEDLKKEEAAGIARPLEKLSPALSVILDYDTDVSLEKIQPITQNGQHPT

hVMAT2 [9] = target: T5, hVMAT2; experiment: Superfusion release of preloaded [3H]NE from HEK-hVMAT2 cells; type: cell-based; settings: for EC50: read-out: Drug-induced release of [3H]NE EC50 ± sem, hVMAT2, superfusion
h5-HT1A receptor [10] = target: T3, h5-HT1A receptor; experiment: Stimulation of [35S]GTPγS binding, HEK-h5-HT1A membranes; type: biochemical; settings: for h5-HT1A Stimulation of [35S]GTPγS binding % maximum stimulation ± sem: normalized to the maximal stimulation by 5-HT; for EC50: read-out: h5-HT1A Stimulation of [35S]GTPγS binding EC50 ± sem
h5-HT2C receptor [11] = target: T8, h5-HT2C receptor (Homo sapiens, UniProt P28335); experiment: biochemical; type: binding; settings: read-out: Inhibition of radioligand binding Ki ± sem, h5-HT2C [125I]DOI
T8 sequence (P28335 33-458): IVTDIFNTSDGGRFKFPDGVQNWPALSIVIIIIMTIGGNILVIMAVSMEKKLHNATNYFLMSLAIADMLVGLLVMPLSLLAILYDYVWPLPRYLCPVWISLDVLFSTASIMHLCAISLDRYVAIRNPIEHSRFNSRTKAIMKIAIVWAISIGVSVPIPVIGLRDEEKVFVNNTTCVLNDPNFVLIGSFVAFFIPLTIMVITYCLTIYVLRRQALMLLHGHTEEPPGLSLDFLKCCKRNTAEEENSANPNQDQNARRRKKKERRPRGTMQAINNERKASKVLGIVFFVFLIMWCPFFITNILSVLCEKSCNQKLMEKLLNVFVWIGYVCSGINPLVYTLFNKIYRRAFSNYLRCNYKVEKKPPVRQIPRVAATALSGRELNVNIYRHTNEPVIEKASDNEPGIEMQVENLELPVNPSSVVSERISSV

hSigma1 receptor = hSigma1 receptor (Homo sapiens, UniProt Q99720); experiment: [3H]; type: binding; settings: read-out: Inhibition of [3H]pentazocine binding Ki ± sem, hSigma1
Chain of hSigma1 receptor (Q99720 whole entry): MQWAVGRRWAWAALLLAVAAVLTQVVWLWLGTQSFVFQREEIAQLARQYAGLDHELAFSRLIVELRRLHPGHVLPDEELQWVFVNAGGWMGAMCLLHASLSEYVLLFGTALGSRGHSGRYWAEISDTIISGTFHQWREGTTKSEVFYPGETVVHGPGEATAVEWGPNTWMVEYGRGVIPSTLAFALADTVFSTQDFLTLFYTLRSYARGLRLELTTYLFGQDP

h5-HT2C receptor [12] = target: T8, h5-HT2C receptor; experiment: Inhibition of 5-HT-stimulated IP-1 formation; type: cell-based; settings: 100 nM 5-HT; normalized to maximal inhibition by SB242084 (1 µM)
h5-HT2C receptor [13] = target: T8, h5-HT2C receptor; type: cell-based
hNET [14] = target: T1, hNET; experiment: cell-based; type: cell-based; settings: for ratio of binding Ki to uptake IC50, hNET: [125I]RTI-55 Ki / [3H]NE uptake IC50; for IC50: read-out: Inhibition of [3H]neurotransmitter uptake IC50 ± sem, hNET [3H]NE
hDAT [15] = target: T2, hDAT; experiment: Inhibition of [125I]RTI-55 binding, HEK-hDAT membranes; settings: read-out: Inhibition of [125I]RTI-55 binding Ki ± sem, hDAT; HEK-hDAT membranes
h5-HT2A receptor [16] = target: T4, h5-HT2A receptor; experiment: [125I]DOI binding, HEK-h5-HT2A; settings: read-out: Inhibition of radioligand binding Ki ± sem, h5-HT2A [125I]DOI
hSERT [17] = target: T7, hSERT; experiment: Inhibition of [3H]5-HT uptake, intact HEK-hSERT cells; type: cell-based; settings: for IC50: read-out: Inhibition of [3H]neurotransmitter uptake IC50 ± sem, hSERT [3H]5-HT, 20 nM [3H]5-HT, intact cells
hVMAT2 [18] = target: T5, hVMAT2; experiment: Inhibition of [3H]DHTB binding, HEK-hVMAT2 membranes; settings: read-out: Inhibition of [3H]DHTB binding Ki ± sem, hVMAT2
[19] = overdose with a bath salt product containing 4-FMC and MDPV; ref [44]; cited from earlier work

T1 sequence (P23975 whole entry): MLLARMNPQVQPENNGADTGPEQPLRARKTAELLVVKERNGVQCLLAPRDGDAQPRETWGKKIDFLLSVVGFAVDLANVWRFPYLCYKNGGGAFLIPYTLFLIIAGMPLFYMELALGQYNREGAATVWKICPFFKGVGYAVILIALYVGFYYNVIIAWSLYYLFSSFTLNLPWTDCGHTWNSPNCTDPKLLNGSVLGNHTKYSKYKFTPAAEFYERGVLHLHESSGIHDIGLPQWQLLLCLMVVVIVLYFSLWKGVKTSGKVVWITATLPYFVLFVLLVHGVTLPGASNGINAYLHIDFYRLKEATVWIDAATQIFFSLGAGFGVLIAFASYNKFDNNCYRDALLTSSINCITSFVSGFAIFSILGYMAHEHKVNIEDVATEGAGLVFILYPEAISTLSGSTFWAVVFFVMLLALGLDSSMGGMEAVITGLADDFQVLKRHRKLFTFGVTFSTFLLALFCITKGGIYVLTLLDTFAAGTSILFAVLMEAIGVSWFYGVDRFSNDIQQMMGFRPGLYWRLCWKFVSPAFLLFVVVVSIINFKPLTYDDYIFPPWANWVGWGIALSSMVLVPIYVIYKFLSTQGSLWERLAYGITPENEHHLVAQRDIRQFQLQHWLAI
Chain of human DA D2 receptor (P14416 whole entry): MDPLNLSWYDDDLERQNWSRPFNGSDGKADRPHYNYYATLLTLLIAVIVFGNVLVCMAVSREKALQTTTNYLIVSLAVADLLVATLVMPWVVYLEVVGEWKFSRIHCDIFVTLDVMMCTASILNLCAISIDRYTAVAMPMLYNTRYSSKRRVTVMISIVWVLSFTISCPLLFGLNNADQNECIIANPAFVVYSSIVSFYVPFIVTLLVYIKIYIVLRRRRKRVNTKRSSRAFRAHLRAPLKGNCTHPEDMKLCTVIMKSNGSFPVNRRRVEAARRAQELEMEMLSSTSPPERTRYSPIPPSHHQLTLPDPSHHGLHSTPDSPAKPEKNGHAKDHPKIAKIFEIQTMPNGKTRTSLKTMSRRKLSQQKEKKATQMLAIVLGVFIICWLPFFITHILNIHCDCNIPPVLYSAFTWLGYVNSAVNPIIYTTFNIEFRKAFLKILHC

Structure (SMILES)	affinity for the [3H]YM-09151-2 binding site, DA D2 receptor (human DA D2 receptor)	Ki (hNET [1]; HEK-hNET membranes) [µM]	ratio of binding Ki to uptake IC50, hDAT (hDAT [2])	IC50 (hDAT [2]) [µM]	EC50 (hNET [3]) [µM]	% maximum release ± sem, hNET [3H]NE (hNET [3]) [%]	Ki (h5-HT1A receptor [4]) [µM]	h5-HT2A Inhibition of 5-HT-stimulated IP-1 formation % maximum inhibition ± sem (h5-HT2A receptor [5]) [%]	IC50 (h5-HT2A receptor [5]) [µM]	IC50 (hVMAT2 [6]) [µM]	EC50 (hSERT [7]) [µM]	EC50 (hDAT [8]) [µM]	EC50 (hVMAT2 [9]) [µM]	h5-HT1A Stimulation of [35S]GTPγS binding % maximum stimulation ± sem (h5-HT1A receptor [10]) [%]	EC50 (h5-HT1A receptor [10]) [µM]	Ki (hSigma1 receptor) [µM]	h5-HT2C Inhibition of 5-HT-stimulated IP-1 formation % maximum inhibition ± sem (h5-HT2C receptor [12]) [%]	Ki (hDAT [15]) [µM]	Ki (h5-HT2A receptor [16]) [µM]	IC50 (hSERT [17]) [µM]	further results
CNC(C)C(=O)c1ccccc1 (stereo not shown) [Methcathinone, methcathinone, reference compound]	no measurable affinity	4.48 ± 0.49	23	0.144 ± 0.032	0.228 ± 0.066	149 ± 42	29.1 ± 3.6	99.63 ± 0.37	40 ± 9.5	117 ± 57	> 100	3.57 ± 0.68	11.6 ± 7.3	52.8 ± 6.2	49 ± 21	117 ± 40	17.5 ± 4.0	3.3 ± 1.1	29.2 ± 3.3	13.5 ± 2.9	affinity for the [3H]YM-09151-2 binding site, DA D3 receptor (human DA D3 receptor): no measurable affinity; affinity for the [3H]YM-09151-2 binding site, DA D4.4 receptor (human D4.4 receptor): no measurable affinity; % maximum release ± sem, hSERT [3H]5-HT (hSERT [7]; relative to maximal AUC induced by PCA (10 µM)): 21.1 ± 9.8%; % maximum release ± sem, hDAT [3H]DA (hDAT [8]): 83.3 ± 4.9%; affinity for the [3H]SCH23390 binding site, DA D1 receptor (human DA D1 receptor): no measurable affinity; Release of [3H]NE % maximum release ± sem or range, hVMAT2 (hVMAT2 [9]): 42 ± 10%; Ki (h5-HT2C receptor [11]): 16 ± 4.2 µM; h5-HT2C agonist activity, inositol monophosphate (h5-HT2C receptor [13]; data not shown): partial agonists with midmicromolar potencies; ratio of binding Ki to uptake IC50, hNET (hNET [14]): 144; IC50 (hNET [14]; 20 nM [3H]NE, intact cells): 0.0311 ± 0.0051 µM; ratio of binding Ki to uptake IC50, hSERT (hSERT [17]; [125I]RTI-55 Ki / [3H]5-HT uptake IC50): > 7.4
CNC(C)Cc1ccc2c(c1)OCO2 (stereo not shown) [MDMA, 3,4-methylenedioxymethylamphetamine, reference compound]	no measurable affinity			0.201 ± 0.047	0.57 ± 0.19	116 ± 11	14.1 ± 2.4	96.3 ± 3.8	189 ± 52	5.8 ± 1.4	1.04 ± 0.27	4.8 ± 2.3	114 ± 40	65.8 ± 8.5	35 ± 14	19.4 ± 6.3	9 ± 12	22 ± 5.1	8.3 ± 1.2	0.109 ± 0.017	Ki (hNET [1]): 30.9 µM; affinity for the [3H]YM-09151-2 binding site, DA D3 receptor (human DA D3 receptor): no measurable affinity; affinity for the [3H]YM-09151-2 binding site, DA D4.4 receptor (human D4.4 receptor): no measurable affinity; % maximum release ± sem, hSERT [3H]5-HT (hSERT [7]): 74 ±12%; % maximum release ± sem, hDAT [3H]DA (hDAT [8]; relative to maximal AUC induced by METH (1 or 10 µM)): 104 ± 14%; affinity for the [3H]SCH23390 binding site, DA D1 receptor (human DA D1 receptor): no measurable affinity; Ki (hVMAT2 [18]): 661 ± 58 µM; h5-HT2C agonist activity, inositol monophosphate (h5-HT2C receptor [13]): full agonist with low micromolar potency; IC50 (hNET [14]): 0.0242 µM
CNC(C)C(=O)c1ccc(F)cc1 (stereo not shown) [4-FMC, 4-fluoromethcathinone]		35 ± 10	38	0.273 ± 0.074	1.53 ± 0.43	194 ± 58	71.6 ± 3.4	97.0 ± 1.6	23.6 ± 3	178 ± 36	39 ± 14	17.8 ± 7.6	> 100	70.7 ± 8.3	156 ± 3.4	24.2 ± 9	15 ± 20	10.4 ± 3.3	10 ± 1	> 10	serum concentration in overdose [19]: 346 ng/mL; serum concentration in overdose (molar) [19]: ~ 1.6 uM; time of peak [3H]NE release after addition of drug (hNET [3]): 8 to 16 min; % maximum release ± sem, hSERT [3H]5-HT (hSERT [7]): 39.3 ± 9.7%; time of peak [3H]5-HT release after addition of drug (hSERT [7]): about 6 min; % maximum release ± sem, hDAT [3H]DA (hDAT [8]): 98 ± 14%; time of peak/maximal [3H]DA release after addition of drug (hDAT [8]; 4-FMC 10 µM to 300 µM, mephedrone 30 µM, methylone 100 µM): about 6 min; fold less potent than METH to induce [3H]DA release (hDAT [8]; EC50 compared to METH): 45 fold; Ki (h5-HT2C receptor [11]): 12.6 ± 2.4 µM; ratio of binding Ki to uptake IC50, hNET (hNET [14]): 276; IC50 (hNET [14]; 20 nM [3H]NE, intact cells): 0.127 ± 0.02 µM
